Laboratory results taken from US10035790B2, “RORγ modulators” (BRISTOL-MYERS SQUIBB COMPANY, priority 2012, dated 2018).

What follows are molecules tested against T1, ligand binding domain of human RORγ (A262-S507) (Homo sapiens, UniProt P51449) (assay: General RORγ SPA binding assay (competition with [3H]25-hydroxycholesterol)). Settings: RORγ SPA binding assay, inhibition of [3H]25-hydroxycholesterol binding; read-out: IC50.
T1 construct: made in house; host or cells: E. coli
T1 sequence (P51449 262-507): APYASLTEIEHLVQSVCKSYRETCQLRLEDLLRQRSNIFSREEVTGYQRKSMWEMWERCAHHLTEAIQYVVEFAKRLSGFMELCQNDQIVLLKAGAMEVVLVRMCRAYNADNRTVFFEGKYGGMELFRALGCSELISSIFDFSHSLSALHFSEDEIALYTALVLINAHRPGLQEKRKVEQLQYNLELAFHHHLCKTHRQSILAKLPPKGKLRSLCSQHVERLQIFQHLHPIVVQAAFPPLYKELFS
Outline: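 Step one: compound meets 50 nM nickel-purified, His-tagged protein from E. coli for 15 min at room temperature (PBS, 0.5% fatty acid free BSA). Step two: radioligand is added for another 15 min. Step three: SPA beads are added for 30 min before scintillation reading and IC50 fitting.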

Row | Structure (SMILES) | IC50 [nM]
1 | C/C(=N\Oc1cc(F)ccc1C)c1cnc(C)nc1C1CCN(C(=O)Cc2c(F)cccc2F)CC1 [Compound B17, (E)-2-(2,6-difluorophenyl)-1-(4-(5-(1-((5-fluoro-2-methylphenoxy)imino)ethyl)-2-methylpyrimidin-4-yl)piperidin-1-yl)ethanone] | 9.3
2 | Cc1ncc(C(C)(C)CNc2nccc(C(F)(F)F)n2)c(C2CCN(C(=O)Cc3c(F)cccc3F)CC2)n1 [Compound F2, 2-(2,6-difluorophenyl)-1-(4-(2-methyl-5-(2-methyl-1-((4-(trifluoromethyl)pyrimidin-2-yl)amino)propan-2-yl)pyrimidin-4-yl)piperidin-1-yl)ethanone] | 26
3 | Cc1ncc(C(C)(O)CNc2nccc(C(F)(F)F)n2)c(C2CCN(C(=O)Nc3c(F)cccc3C(F)(F)F)CC2)n1 (centres unmarked) [Compound D22, N-[2-Fluoro-6-(trifluoromethyl)phenyl]-4-[5-(1-hydroxy-1-methyl-2-{[4-(trifluoromethyl)pyrimidin-2-yl]amino}ethyl)-2-methylpyrimidin-4-yl]piperidine-1-carboxamide] | 76.1
4 | Cc1ncc(C2(C)CN(c3ccnc(C(F)(F)F)n3)C(=O)O2)c(C2CCN(C(=O)Cc3c(F)cccc3F)CC2)n1 (centres unmarked) [Compound N50, 5-(4-{1-[(2,6-Difluorophenyl)acetyl]piperidin-4-yl}-2-methylpyrimidin-5-yl)-5-methyl-3-[2-(trifluoromethyl)pyrimidin-4-yl]-1,3-oxazolidin-2-one] | 290
5 | Cc1ncc(C(O)(CCO)COc2cccc(C(F)(F)F)n2)c(C2CCN(C(=O)Nc3c(F)cccc3F)CC2)n1 (centres unmarked) [Compound N30, N-(2,6-Difluorophenyl)-4-{5-[1,3-dihydroxy-1-({[6-(trifluoromethyl)pyridin-2-yl]oxy}methyl)propyl]-2-methylpyrimidin-4-yl}piperidine-1-carboxamide] | 10.9
6 | O=C(NCc1ccc(Cl)c(Cl)c1)c1cncnc1C1CCN(C(=O)Cc2c(F)ccc(F)c2F)CC1 [Compound A68, N-(3,4-dichlorobenzyl)-4-(1-(2-(2,3,6-trifluorophenyl)acetyl)piperidin-4-yl)pyrimidine-5-carboxamide] | 95
7 | Cc1ncc(C(=O)NCc2ccnc(C#N)c2)c(C2CCN(C(=O)Cc3c(F)cccc3F)CC2)n1 [Compound A55, N-((2-cyanopyridin-4-yl)methyl)-4-(1-(2-(2,6-difluorophenyl)acetyl)piperidin-4-yl)-2-methylpyrimidine-5-carboxamide] | 19.2
8 | COC(=O)C(NC(=O)c1cnc(C)nc1C1CCN(C(=O)Cc2c(F)cccc2F)CC1)c1cccc(Cl)c1 (centres unmarked) [Compound A75, methyl 2-(3-chlorophenyl)-2-(4-(1-(2-(2,6-difluorophenyl)acetyl)piperidin-4-yl)-2-methylpyrimidine-5-carboxamido)acetate] | 750
9 | Cc1nc(N)nc(C2CCN(C(=O)Oc3ccccc3F)CC2)c1-c1nnc(-c2ccnc(C(F)(F)F)n2)o1 [Compound C52, 2-Fluorophenyl 4-(2-amino-6-methyl-5-{5-[2-(trifluoromethyl)pyrimidin-4-yl]-1,3,4-oxadiazol-2-yl}pyrimidin-4-yl)piperidine-1-carboxylate] | 8.7
10 | Cc1ncc(C(F)(F)COc2cccc(C(F)(F)F)n2)c(C2CCN(C(=O)Nc3c(F)cccc3C(F)(F)F)CC2)n1 [Compound N15, 4-[5-(1,1-Difluoro-2-{[6-(trifluoromethyl)pyridin-2-yl]oxy}ethyl)-2-methylpyrimidin-4-yl]-N-[2-fluoro-6-(trifluoromethyl)phenyl]piperidine-1-carboxamide] | 10.9
11 | Cc1ncc(C(=O)NOc2cccc(Cl)c2)c(C2CCN(C(=O)Cc3c(F)cccc3F)CC2)n1 [Compound H3, N-(3-chlorophenoxy)-4-(1-(2-(2,6-difluorophenyl)acetyl)piperidin-4-yl)-2-methylpyrimidine-5-carboxamide] | 84
